From patent publication US20250326744A1, “PIPERAZINE DERIVATIVE OR SALT THEREOF, AND PHARMACEUTICAL COMPOSITION” (priority 2022, published 2025)
Structures can show the parent of a compound that is named as a salt.

Experiments:
mexB (EC) strain = test: Efflux ability inhibition effect on drug efflux pump MexB (Test Examples 1 and 3): proliferation (OD595) of mexB (EC) strain with EM or LVFX at 1/4 MIC, EC75; type: cell-based, Escherichia coli; conditions: for EC75, mexB (EC) strain, EM: combined with EM at 1/4 MIC; for EC75, mexB (EC) strain, LVFX: combined with LVFX at 1/4 MIC
How it was run: (§1)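 E. coli ΔacrB/ΔtolC strains carrying P. aeruginosa MexAB-OprM or MexXY-OprM were grown in LB for 16 to 20 hours with EM or LVFX at ¼ MIC plus compound (0 to 800 μM). Growth was read as OD595. EC75 is the lowest compound concentration giving ≥75% growth inhibition versus antibiotic alone.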

mexY (EC) strain = test: Efflux ability inhibition effect on drug efflux pump MexY (Test Examples 1 and 3): proliferation (OD595) of mexY (EC) strain with EM or LVFX at 1/4 MIC, EC75; type: cell-based, Escherichia coli; conditions: for EC75, mexY (EC) strain, EM: combined with EM at 1/4 MIC; for EC75, mexY (EC) strain, LVFX: combined with LVFX at 1/4 MIC
How it was run: as §1

S-3769 strain = test: Combinational effect with antibacterial agent against Pseudomonas aeruginosa (Test Examples 2 and 4): S-3769 strain with AMK or GM at 1/4 MIC, EC99; type: cell-based; conditions: S-3769 strain, Test Example 4
How it was run: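 P. aeruginosa S-3769 (clinical isolate, MexY overexpressed) grown 16–20 h in CAMHB, 10^4 to 5 CFU/well, with AMK or GM at ¼ MIC plus test compound 0–800 μM. Growth read as OD595; EC99 is the lowest compound concentration giving ≥99% growth inhibition.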

mexB (PA) strain = test: Combinational effect with antibacterial agent against Pseudomonas aeruginosa (Test Examples 2 and 4): mexB (PA) strain with LVFX, TC or AZT at 1/4 MIC, EC99; type: cell-based; conditions: mexB (PA) strain, Test Example 4
How it was run: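 P. aeruginosa mexB (PA) strain, lacking MexCD-OprJ, MexEF-OprN and MexXY and overexpressing MexAB-OprM, grown 16–20 h in CAMHB (10^4–5 CFU/well) with LVFX, TC or AZT at ¼ MIC plus test compound at 0–800 μM. Growth read as OD595; EC99 is the lowest compound concentration giving ≥99% growth inhibition.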

[1] = Table 51, Test Example 1, 16 to 20 hours culture, OD595
[2] = Table 53, Test Example 3, same manner as Test Example 1

SMILES	EC75, mexB (EC) strain, EM (mexB (EC) strain; [1])	EC75, mexY (EC) strain, EM (mexY (EC) strain; [1])	EC75, mexY (EC) strain, LVFX (mexY (EC) strain; [1])	EC75, mexB (EC) strain, LVFX (mexB (EC) strain; [1])	other results
COc1ccccc1CN1CCN(C(=O)[C@H](N)C2CCN(CC(CN)c3ccccc3)CC2)CC1 (stereo partly drawn) [Example 136, hydrochloride of (2R)-2-amino-2-(1-(3-amino-2-phenylpropyl)piperidin-4-yl)-1-(4-(2-methoxybenzyl)piperazin-1-yl)ethan-1-one]	B (25 μM<EC75≤100 μM)	B (25 μM<EC75≤100 μM)	B (25 μM<EC75≤100 μM)		
COc1cncc(F)c1CN1CCN(C(=O)[C@H](N)C2CCN(CCc3cc(Cl)ccc3-c3ccccc3)CC2)CC1 [Example 514, Hydrobromide of (R)-2-amino-2-(1-(2-(4-chloro-[1,1-biphenyl]-2-yl)ethyl)piperidin-4-yl)-1-(4-((3-fluoro-5-methoxypyridin-4-yl)methyl)piperazin-1-yl)ethan-1-one]					EC99, combinational effect with AMK, S-3769 strain (S-3769 strain; combined with AMK at 1/4 MIC): B (25 μM<EC99≤100 μM); EC99, combinational effect with GM, S-3769 strain (S-3769 strain; combined with GM at 1/4 MIC): B (25 μM<EC99≤100 μM); EC75, mexB (EC) strain, EM (mexB (EC) strain; [2]): B (25 μM<EC75≤100 μM); EC75, mexB (EC) strain, LVFX (mexB (EC) strain; [2]): B (25 μM<EC75≤100 μM); EC75, mexY (EC) strain, EM (mexY (EC) strain; [2]): B (25 μM<EC75≤100 μM); EC75, mexY (EC) strain, LVFX (mexY (EC) strain; [2]): B (25 μM<EC75≤100 μM); EC99, combinational effect with AZT, mexB (PA) (mexB (PA) strain; combined with AZT at 1/4 MIC): C (100 μM<EC99); EC99, combinational effect with LVFX, mexB (PA) (mexB (PA) strain; combined with LVFX at 1/4 MIC): C (100 μM<EC99); EC99, combinational effect with TC, mexB (PA) (mexB (PA) strain; combined with TC at 1/4 MIC): C (100 μM<EC99)
N[C@@H](C(=O)N1CCN(Cc2cscn2)CC1)C1CCN(CCc2cc(Cl)ccc2-c2ccccc2)CC1 [Example 13, Hydrobromide of (R)-2-amino-2-(1-(2-(4-chloro-[1,1′-biphenyl]-2-yl)ethyl)piperidin-4-yl)-1-(4-(thiazol-4-ylmethyl)piperazin-1-yl)ethan-1-one]	B (25 μM<EC75≤100 μM)	B (25 μM<EC75≤100 μM)	B (25 μM<EC75≤100 μM)	B (25 μM<EC75≤100 μM)	
COc1ccccc1CN1CCN(C(=O)[C@@H](N)C2CCN(CCc3ccccc3)CC2)CC1 [Example 112, Hydrochloride of (S)-2-amino-1-(4-(2-methoxybenzyl)piperazin-1-yl)-2-(1-phenethylpiperidin-4-yl)ethan-1-one]	B (25 μM<EC75≤100 μM)	A (12.5 μM<EC75≤25 μM)	A (12.5 μM<EC75≤25 μM)	B (25 μM<EC75≤100 μM)	
COc1ccccc1CN1CCN(C(=O)CN2CCC(NC(=O)c3ccc(O)c(O)c3Cl)CC2)CC1 [Example 418, hydrochloride of 2-chloro-3,4-dihydroxy-N-(1-(2-(4-(2-methoxybenzyl)piperazin-1-yl)-2-oxoethyl)piperidin-4-yl)benzamide]	B (25 μM<EC75≤100 μM)		A (12.5 μM<EC75≤25 μM)	B (25 μM<EC75≤100 μM)	
COc1ccccc1CN1CCN(C(=O)CN2CCC(NCc3ccccc3)CC2)CC1 [Example 419, hydrochloride of 2-(4-(benzylamino)piperidin-1-yl)-1-(4-(2-methoxybenzyl)piperazin-1-yl)ethan-1-one]		B (25 μM<EC75≤100 μM)	B (25 μM<EC75≤100 μM)	A (12.5 μM<EC75≤25 μM)	
COc1ccccc1CN1CCN(C(=O)C(=NN)C2CCN(CCc3ccccc3)CC2)CC1 [Example 301, hydrochloride of 2-hydrazinyliden-1-(4-(2-methoxybenzyl)piperazin-1-yl)-2-(1-phenethylpiperidin-4-yl)ethan-1-one]	B (25 μM<EC75≤100 μM)	B (25 μM<EC75≤100 μM)	B (25 μM<EC75≤100 μM)	B (25 μM<EC75≤100 μM)	
CCOc1cccc(/C=C/C#N)c1CN1CCN(C(=O)[C@H](N)C2CCN(CCc3ccccc3)CC2)CC1 [Example 34]	B (25 μM<EC75≤100 μM)	A (12.5 μM<EC75≤25 μM)	A (12.5 μM<EC75≤25 μM)	B (25 μM<EC75≤100 μM)	
COc1ccccc1CN1CCN(C(=O)CN2CCC(CN)(CCc3ccccc3)CC2)CC1 [Example 413, hydrochloride of 2-(4-(aminomethyl)-4-phenethylpiperidin-1-yl)-1-(4-(2-methoxybenzyl)piperazin-1-yl)ethan-1-one]	A (12.5 μM<EC75≤25 μM)	A (12.5 μM<EC75≤25 μM)		A (12.5 μM<EC75≤25 μM)	
COc1ccccc1CN1CCN(C(=O)[C@H](N)C2CCN(CCc3ccsc3)CC2)CC1 [Example 133, hydrochloride of (R)-2-amino-1-(4-(2-methoxybenzyl)piperazin-1-yl)-2-(1-(2-(thiophen-3-yl)ethyl)piperidin-4-yl)ethan-1-one]		B (25 μM<EC75≤100 μM)	B (25 μM<EC75≤100 μM)	A (12.5 μM<EC75≤25 μM)	
CCOc1cccc(F)c1CN1CCN(C(=O)[C@H](N)C2CCN(CC(F)(F)c3ccccc3)CC2)CC1 [Example 54, Hydrobromide of (R)-2-amino-2-(1-(2,2-difluoro-2-phenylethyl)piperidin-4-yl)-1-(4-(2-ethoxy-6-fluorobenzyl)piperazin-1-yl) ethan-1-one]	B (25 μM<EC75≤100 μM)	B (25 μM<EC75≤100 μM)	B (25 μM<EC75≤100 μM)	B (25 μM<EC75≤100 μM)	
O=C(O)c1ccccc1CN1CCN(C(=O)CN2CCN(CCc3ccccc3)CC2)CC1 [Example 256, sodium salt of 2-((4-(2-(4-phenethylpiperazin-1-yl)acetyl)piperazin-1-yl)methyl)benzenecarboxylic acid]	B (25 μM<EC75≤100 μM)	B (25 μM<EC75≤100 μM)			
COCCOc1cccc(F)c1CN1CCN(C(=O)[C@H](N)C2CCN(CCc3ccccc3)CC2)CC1 [Example 116, Hydrochloride of (R)-2-amino-1-(4-(2-fluoro-6-(2-methoxyethoxy)benzyl)piperazin-1-yl)-2-(1-phenethylpiperidin-4-yl)ethan-1-one]	A (12.5 μM<EC75≤25 μM)	B (25 μM<EC75≤100 μM)	B (25 μM<EC75≤100 μM)	A (12.5 μM<EC75≤25 μM)	
COc1ccccc1CN1CCN(C(=O)C(=NO)C2CCN(CCc3ccccc3)CC2)CC1 [Example 302, hydrochloride of 2-(hydroxyimino)-1-(4-(2-methoxybenzyl)piperazin-1-yl)-2-(1-phenethylpiperidine-4-yl)ethan-1-one]	B (25 μM<EC75≤100 μM)	B (25 μM<EC75≤100 μM)	B (25 μM<EC75≤100 μM)		
COc1ccccc1CN1CCN(C(=O)CN2CCC(N)(CCc3ccccc3)CC2)CC1 [Example 414, hydrochloride of 2-(4-amino-4-phenethylpiperidin-1-yl)-1-(4-(2-methoxybenzyl)piperazin-1-yl)ethan-1-one]		B (25 μM<EC75≤100 μM)	B (25 μM<EC75≤100 μM)	A (12.5 μM<EC75≤25 μM)	
CN[C@@H](C(=O)N1CCN(Cc2ccccc2OC)CC1)C1CCN(CCc2ccccc2)CC1 [Example 131, hydrochloride of (R)-1-(4-(2-methoxybenzyl)piperazin-1-yl)-2-(methylamino)-2-(1-phenethylpiperidin-4-yl)ethan-1-one]	B (25 μM<EC75≤100 μM)	B (25 μM<EC75≤100 μM)	B (25 μM<EC75≤100 μM)	B (25 μM<EC75≤100 μM)	
